# Measurements: patent publication US8920788B2, “High-molecular weight conjugate of physiologically active substances” (priority 2008, dated 2014)
# Structures can show the parent of a compound that is named as a salt.
# Legend:
# [1] = Lethal dose of the control drug; type: in vivo; settings: control drug of the antitumor test
# Method: The lethal dose of doxorubicin used as the control drug was 30 mg/kg, and therefore doxorubicin was administered at a dose of 15 mg/kg to perform the antitumor test.
# [2] = test system: Mouse colon cancer, Colon 26; assay: Antitumor activity, subcutaneously transplanted Colon 26 in mice; type: in vivo, female CDF1 mice; settings: dose 15 mg/kg, once into tail vein
# From the text: Mouse colon cancer, Colon 26, maintained by serial subcutaneous subculture in mice, was minced into about 2-mm cubic fragments, and the fragments were subcutaneously transplanted on the dorsal part of female CDF1 mice with a trocar. Eight days after the tumor transplantation, the high-molecular weight conjugate according to the present invention (Compound 2 and Compound 4) or a control drug (Comparative Compound 1 and doxorubicin hydrochloride) was each administered once into the mouse tail vein in a way such that each mouse received the same dose per body weight in terms of doxorubicin. Each compound was dissolved in a 5% liquid glucose for injection and used. After the administration, the major axis (L mm) and the minor axis (W mm) of the tumor were measured using a caliper, and the tumor volume was calculated by the formula (L×W^2)/2.
structure (smiles),measurement,setting,value
"COc1cccc2c1C(=O)c1c(O)c3c(c(O)c1C2=O)C[C@@](O)(C(=O)CO)C[C@@H]3O[C@H]1C[C@H](N)[C@H](O)[C@H](C)O1 [Doxorubicin, doxorubicin hydrochloride]",lethal dose,[1],30 mg/kg
same,relative tumor volume based on the tumor volume on the day of administration,[2]; day 0 after administration,1.00
same,relative tumor volume based on the tumor volume on the day of administration,[2]; day 3 after administration,1.79
same,relative tumor volume based on the tumor volume on the day of administration,[2]; day 7 after administration,3.89
same,relative tumor volume based on the tumor volume on the day of administration,[2]; day 10 after administration,5.27
same,relative tumor volume based on the tumor volume on the day of administration,[2]; day 14 after administration,12.17
